In article PMC11027885, “Utilizing surface plasmon resonance as a novel method for monitoring in-vitro P-glycoprotein efflux” (Frontiers in biophysics, 2024):
Structures can show the parent of a compound that is named as a salt. Where two headings read alike, the source gives them in different places.

Tests used:
mouse Pgp (Abcb1a, MDR3) = mouse Pgp (Abcb1a, MDR3) (Mus musculus, UniProt P21447); test: ATPase assay (Chifflet method), Pgp reconstituted in liposomes
Pgp = tested on: Pgp; design: method as in Doan et al. (2002); settings: drug accumulation assay, MDR1-MDCKII cells; ref Doan et al. (2002); cited from earlier work
Pgp (Abcb1a, MDR3) = Pgp (Abcb1a, MDR3) (Mus musculus, UniProt P21447); test: in vitro; settings: pH 7.4
Sequence of Pgp (Abcb1a, MDR3) (P21447 whole entry): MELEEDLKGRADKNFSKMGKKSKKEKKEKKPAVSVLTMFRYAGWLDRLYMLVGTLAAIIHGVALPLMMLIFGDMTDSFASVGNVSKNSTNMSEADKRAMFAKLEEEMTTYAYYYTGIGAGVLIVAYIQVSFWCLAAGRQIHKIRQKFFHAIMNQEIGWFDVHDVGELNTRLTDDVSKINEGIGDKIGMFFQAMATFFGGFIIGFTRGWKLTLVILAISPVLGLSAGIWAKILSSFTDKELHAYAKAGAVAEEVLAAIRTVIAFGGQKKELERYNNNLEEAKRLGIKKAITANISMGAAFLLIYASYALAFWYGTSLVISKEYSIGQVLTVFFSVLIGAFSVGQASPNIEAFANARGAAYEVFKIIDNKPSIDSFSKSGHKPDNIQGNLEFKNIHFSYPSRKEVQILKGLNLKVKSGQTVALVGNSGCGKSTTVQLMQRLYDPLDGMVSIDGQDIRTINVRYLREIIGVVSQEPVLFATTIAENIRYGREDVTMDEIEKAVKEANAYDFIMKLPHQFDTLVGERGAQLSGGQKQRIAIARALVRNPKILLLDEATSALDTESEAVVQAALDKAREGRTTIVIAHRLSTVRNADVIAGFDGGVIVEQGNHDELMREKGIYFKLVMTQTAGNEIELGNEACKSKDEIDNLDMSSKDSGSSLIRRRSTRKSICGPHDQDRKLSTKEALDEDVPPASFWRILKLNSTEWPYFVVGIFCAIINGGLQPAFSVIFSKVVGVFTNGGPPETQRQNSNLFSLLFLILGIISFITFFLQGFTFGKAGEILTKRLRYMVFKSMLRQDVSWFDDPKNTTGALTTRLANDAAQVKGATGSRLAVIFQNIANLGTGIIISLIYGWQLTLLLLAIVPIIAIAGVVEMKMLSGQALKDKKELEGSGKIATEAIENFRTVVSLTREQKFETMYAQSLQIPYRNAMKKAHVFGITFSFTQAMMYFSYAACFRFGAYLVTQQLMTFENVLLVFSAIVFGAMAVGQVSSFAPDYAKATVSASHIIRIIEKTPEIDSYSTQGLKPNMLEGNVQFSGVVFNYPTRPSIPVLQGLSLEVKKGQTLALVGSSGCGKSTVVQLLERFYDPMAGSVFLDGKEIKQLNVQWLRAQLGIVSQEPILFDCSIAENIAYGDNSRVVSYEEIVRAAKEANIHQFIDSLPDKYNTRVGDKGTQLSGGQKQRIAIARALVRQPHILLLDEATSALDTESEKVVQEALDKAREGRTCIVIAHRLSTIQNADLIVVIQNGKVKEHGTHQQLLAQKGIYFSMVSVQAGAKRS

Sequence of mouse Pgp (Abcb1a, MDR3) (P21447 whole entry): as above

## C=C[C@H]1C[N@@]2CC[C@H]1C[C@@H]2[C@@H](O)c1ccnc2ccc(OC)cc12 [Quinidine]
Mouse Pgp (Abcb1a, MDR3)
  Ki: 131 ± 34 µM
  peak ATP hydrolysis rate: approximately 900 nmolmin^−1mg^−1

## CCC(=O)C(CC(C)N(C)C)(c1ccccc1)c1ccccc1 (stereo not drawn) [Methadone, methadone hydrochloride]
Mouse Pgp (Abcb1a, MDR3)
  peak ATP hydrolysis rate: approximately 800 nmolmin^−1mg^−1
  vmax of Pgp ATP hydrolysis: 849 ± 45 nmolmin^−1mg^−1

## [Na+].[Na+].[Na+].[O]=[V]([O-])([O-])[O-] [sodium orthovanadate, Sodium orthovanadate]
Mouse Pgp (Abcb1a, MDR3); decline from basal 482 ± 50
  Pgp ATPase activity in presence of inhibitor: approximately 100 nmolmin^−1mg^−1

## CNCCCN1c2ccccc2CCc2ccccc21 [Desipramine, desipramine hydrochloride]
Mouse Pgp (Abcb1a, MDR3); 50 nM Pgp in liposomes, curve fit (Eq. 2 monophasic, Eq. 3 biphasic)
  vmax of Pgp ATP hydrolysis: 904 ± 65 nmolmin^−1mg^−1
Mouse Pgp (Abcb1a, MDR3); shape of ATPase kinetics curve
  ATP hydrolysis activation profile: monophasic
Pgp
  Pgp efflux ratio (literature): 2
Pgp (Abcb1a, MDR3)
  koff: 129 s⁻¹
